In patent US20250222003A1, “PHARMACEUTICAL COMPOSITION FOR TREATING SOLID TUMORS” (Eisai R&D Management Co., Ltd., priority 2021, published 2025):

Tested on: patients with a solid tumor
Settings: human, in vivo
Method: This study was carried out as an open-label phase I clinical trial for Compound A. The study was composed of a dose-escalation part to evaluate the safety and tolerability of Compound A, and an expansion part to evaluate the safety, tolerability and preliminary efficacy of Compound A. Each dose in the Examples is expressed as a dose of Compound A in free form.
In the dose-escalation part, the safety and tolerability of Compound A was evaluated at a plurality of doses using a 3+3 design. The starting dose of Compound A was set at 10 mg BID (twice daily).
NCI CTCAE v5.0 was used to evaluate the severity.
This was performed using the analysis subject populations for all safety evaluations (excluding DLT evaluations).
Summary statistics for the safety data (continuous variables: number of cases, mean value, standard deviation, median, minimum and maximum values; categorical variables: number of cases and proportion) were calculated based on the actually administered treatments. […] The following laboratory tests were performed: hematological tests (red blood cell count, hemoglobin, hematocrit value, platelet count, white blood cell count, white blood cell fractions (neutrophils, lymphocytes, monocytes, eosinophils, basophils) coagulation test: INR), blood biochemical tests (liver function tests (AST, ALT, ALP, GGT, total bilirubin, direct bilirubin), renal function test (BUN, creatinine), other tests (blood glucose level, albumin, cholesterol, LDH, total protein, uric acid, amylase, lipase, Na, K, Cl, Ca, phosphorus, Mg, virus test: HBs antigen a, HBs antibody a, HBc antibody a, HCV antibody a, HIV antibody a, HBV DNAb, B-CTXc, 25-hydroxyvitamin Dd), and urine test (pH, protein, sugar, ketone bodies, occult blood, specific gravity)).

## C=CCN1CC(=O)N2[C@@H](Cc3ccc(O)cc3F)C(=O)N(Cc3cccc(N4CC(N5CCN(CC)CC5)C4)n3)C[C@@H]2N1C(=O)NCc1ccccc1 [Compound A, (6S,9aS)—N-benzyl-8-({6-[3-(4-ethylpiperazin-1-yl)azetidin-1-yl]pyridin-2-yl}methyl)-6-(2-fluoro-4-hydroxybenzyl)-4,7-dioxo-2-(prop-2-en-1-yl)hexahydro-2H-pyrazino[2,1-c][1,2,4]triazine-1 (6H)-carboxamide]
  Subjects with Any Treatment-related TEAEs, Any Grade, (%): (89.3) %
  Subjects with Any Treatment-related TEAEs, Grade ≥3, (%): (10.7) %
  TEAE Alanine aminotransferase increased, Any Grade, (%): (14.3) %
  TEAE Amylase increased, Any Grade, (%): (3.6) %
  TEAE Anemia, Any Grade, (%): (10.7) %
  TEAE Aspartate aminotransferase increased, Any Grade, (%): (14.3) %
  TEAE C-telopeptide increased, Any Grade, (%): (3.6) %
  TEAE Decreased appetite, Any Grade, (%): (10.7) %
  TEAE Decreased appetite, Grade ≥3, (%): (7.1) %
  TEAE Diarrhea, Any Grade, (%): (7.1) %
  TEAE Electrocardiogram QT prolonged, Any Grade, (%): (3.6) %
  TEAE Hyperphosphatemia, Any Grade, (%): (3.6) %
  TEAE Lipase increased, Any Grade, (%): (3.6) %
  TEAE Lipase increased, Grade ≥3, (%): (3.6) %
  TEAE Liver disorder, Any Grade, (%): (3.6) %
  TEAE Nausea, Any Grade, (%): (78.6) %
  TEAE Osteoporosis, Any Grade, (%): (3.6) %
  TEAE Rash, Any Grade, (%): (3.6) %
  TEAE Sinus tachycardia, Any Grade, (%): (3.6) %
  TEAE Stomatitis, Any Grade, (%): (3.6) %
  TEAE Vomiting, Any Grade, (%): (67.9) %
  TEAE White blood cell count decreased, Any Grade, (%): (7.1) %
  recommended dose: less than 160 mg BID
